Measured values as given in US7034056B2, “Aryl and biaryl compounds having MCH modulatory activity” (Pharmacopeia Drug Discovery, inc., priority 2001, dated 2006).
pKi: −log10 of the molar value.

Biological target: T1, hMCHR (MCH receptor) (Homo sapiens, UniProt Q99705)
T1 construct: (or internally produced); host or cells: CHO (Chinese hamster ovary) cells, membrane preparation
Experiment: MCH Assay PCOP Protocol ([125I]-MCH SPA binding to hMCHR-CHO membranes);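 as to Activity (Ki range): A 0.4–50 nM B 51–500 nM C 501–2500 nM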
Details: [125I]-MCH 0.5 nM, hMCHR-CHO membranes; read-out: Activity (ranges of Ki values)
Summary of the method: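 SPA binding with 10 μg hMCHR-CHO membranes and WGA-SPA beads in 25 mM HEPES pH 7.4, 10 mM NaCl, 10 mM MgCl2, 5 mM MnCl2, 0.1% BSA.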

T1 sequence (Q99705 whole entry): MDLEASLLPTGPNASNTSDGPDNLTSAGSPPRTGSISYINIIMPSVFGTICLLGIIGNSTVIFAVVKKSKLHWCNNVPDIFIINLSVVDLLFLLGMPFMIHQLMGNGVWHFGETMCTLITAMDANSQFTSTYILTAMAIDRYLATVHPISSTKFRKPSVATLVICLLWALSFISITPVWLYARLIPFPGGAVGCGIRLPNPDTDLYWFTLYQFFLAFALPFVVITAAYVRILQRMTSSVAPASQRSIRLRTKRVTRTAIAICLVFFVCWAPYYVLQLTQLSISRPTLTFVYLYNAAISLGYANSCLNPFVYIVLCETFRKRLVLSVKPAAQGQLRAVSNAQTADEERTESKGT

pKi, 5.60 to 6.30:
CNCCC(CNC(=O)c1ccc(F)c(F)c1)c1ccc(-c2cccc(C#N)c2)cc1 (racemic) [Example 24, (R,S)-N-[2-(3′-Cyano-biphenyl-4-yl)-4-methylamino-butyl]-3,4-difluoro-benzamide]
COc1cscc1C(=O)NC1CCN(CCC(CNC(=O)Nc2cc(Cl)cc(Cl)c2)c2ccc(Cl)cc2)CC1 (centres unmarked) [Example 201]
O=C(NCC(CCNC1CCCC1)c1ccc(Cl)c(Cl)c1)Nc1ccc(F)c(F)c1 (centres unmarked) [Example 144]

Same assay, conditions: [125I]-MCH binding to hMCHR-CHO membranes; class symbols for ranges of Ki; read-out: Activity (Ki range)

pKi, 5.60 to 6.30:
O=C(NCC(CCNCCCn1ccnc1)c1ccc(Cl)c(Cl)c1)c1cc(C(F)(F)F)cc(C(F)(F)F)c1 (centres unmarked) [Example 414]
CCCCN(CCC(CNC(=O)c1cc(C(F)(F)F)cc(C(F)(F)F)c1)c1ccc(Cl)c(Cl)c1)C1CC1 (centres unmarked) [Example 401]
Cc1ccc(-c2ccc(C(CCNCCCN(C)C)CNC(=O)Nc3cc(Cl)cc(Cl)c3)cc2)cc1 (centres unmarked) [Example 254]
O=C(NCC(CCN1CCc2c([nH]c3ccccc23)C1)c1ccc(Cl)c(Cl)c1)c1cc(C(F)(F)F)cc(C(F)(F)F)c1 (centres unmarked) [Example 397]
Cc1cccc(C(CCNCCCN(C)C)CNC(=O)Nc2cc(C(F)(F)F)cc(C(F)(F)F)c2)c1 (centres unmarked) [Example 347]
